# B1: BeFx.OmpR: beryllofluoride complex of E. coli response regulator OmpR (protein, UniProt P0AA16 1-239, looked up)
# DNA-binding dual …: MQENYKILVVDDDMRLRALLERYLTEQGFQVRSVANAEQMDRLLTRESFHLMVLDLMLPGEDGLSICRRLRSQSNPMPIIMVTAKGEEVDRIVGLEIGADDYIPKPFNPRELLARIRAVLRRQANELPGAPSQEEAVIAFGKFKLNLGTREMFREDEPMPLTSGEFAVLKALVSHPREPLSRDKLMNLARGREYSAMERSIDVQISRLRRMVEEDPAHPRYIQTVWGLGYVFVPDGSKA
# modifications: beryllofluoride complex
# B2: BeFx.CheY: beryllofluoride acyl phosphate analogue of E. coli response regulator CheY (protein, UniProt P0AE67 2-129, looked up)
# Chemotaxis protein CheY: ADKELKFLVVDDFSTMRRIVRNLLKELGFNNVEEAEDGVDALNKLQAGGYGFVISDWNMPNMDGLELLKTIRADGAMSALPVLMVTAEAKKENIIAAAQAGASGYVVKPFTAATLEEKLNKIFEKLGM
# modifications: beryllofluoride complex
# B3: CheY: E. coli CheY, central regulator of the chemotactic response, unmodified inactive form (protein, UniProt P0AE67 2-129, looked up)
# Chemotaxis protein CheY: B2 Chemotaxis protein CheY
# Experiments:
# [1] = system: control region for the fdnG operon; assay: DNase I footprinting of NarL DNA-binding; set-up: species or system E. coli
# [2] = biological target: T1, phosphoserine phosphatase (PSP) (Methanocaldococcus jannaschii, UniProt Q58989); assay: Inhibition of hydrolytic activity of PSP; format: biochemical, Methanococcus jannaschii; details: for Effect of single component on PSP activity: NaF alone or BeCl2 alone; for Inhibition of hydrolytic activity of PSP: analog generated in situ (NaF plus BeCl2 or AlCl3)
# T1 construct: made in house
# [3] = biological target: T2, NtrC^D86N,S160F (Salmonella typhimurium, UniProt P41789, C30V/C364A/D86N/S160F); format: biochemical; details: for Effect of single component on ATPase activity of NtrC^D86N,S160F: trace amounts of BeCl2 alone, high concentrations of NaF in absence of BeCl2
# T2 construct: made in house
# [4] = biological target: T3, NtrC^WT (Salmonella typhimurium, UniProt P41789, C30V/C364A); format: biochemical; details: for Stimulation of the ATPase activity of NtrC^WT: BeCl2 200 μM, AlCl3 200 μM, NaF 5 mM, VO4^3− 1 mM, compared with carbamoyl phosphate 10 mM
# T3 construct: made in house
# Experimental: NtrC proteins. […] All full-length NtrC proteins (dimer concentration) were maltose binding protein fusions to NtrC lacking its two natural cysteines (MBP-NtrC^C30V,C364A) or its derivatives.
# Assays. […] Mol. Biol. 249, 700-713). Prior to addition of ATP, other components were incubated for 30 min at 25° C. together with the indicated small molecule or combination of small molecules (carbamoyl phosphate, 10 mM; BeCl2, 200 μM; AlCl3, 200 μM; NaF, 5 mM; VO4^3−, 1 mM). The response of the ATPase activity of NtrC to the concentration of NaF or BeCl2 was assessed essentially as above, except the reaction time was 10 min.
# [5] = system: mutant forms of NtrC in which D54 has been replaced by A or N; assay: ATPase activity of NtrC D54 mutants; format: biochemical, Salmonella typhimurium; details: data not shown
# [6] = biological target: T4, NtrC^D86C,Fe (Salmonella typhimurium, UniProt P41789, C30V/C364A/D86C); assay: Fe-mediated cleavage of NtrC^D86C,Fe; format: biochemical; details: BeCl2 200 μM, NaF 10 mM; divalent cation required
# T4 construct: made in house
# Experimental: Fe-mediated cleavage of NtrC was assessed as follows: NtrC (5 to 10 μM) was incubated for 30 min at 25° C. with the indicated small molecule or combination of small molecules (carbamoyl phosphate, 10 mM; BeCl2, 200 μM; NaF, 10 mM) in cleavage buffer (10 mM MOPS, pH 8.0, 50 mM KCl, 8 mM MgCl2, 5% glycerol, 1 mM EDTA). Then cleavage was initiated by adding H2O2 and sodium ascorbate to final concentrations of 50 mM and samples were subjected to analysis by SDS-PAGE as described (Greiner etal. (1997) Bioconjugate Chem. 8, 44-48).
# We have two direct lines of evidence that BeFx mimics effects of phosphorylation of NtrC structurally as well as functionally. […] Rearrangement at the dimer interface of P-NtrC is postulated to drive the formation of active oligomers. […] By contrast, the BeFx-dependent cleavage did require a divalent cation, and either Mg^2+ or Mn^2+ could serve (FIG. 3B). Thus, like phosphorylation (Parkinson and Kofoid (1992) Annu. Rev. Genet. 26, 71-112; Stock et al. (1995) in Two-component signal transduction, eds. Hoch and Silhavy (ASM, Washington, D.C.), pp. 25-51; Lukat et al. (1992) Proc. Natl. Acad. Sci. USA 89, 718-722; Feng et al. (1992) J. Bacteriol. 174, 6061-6070), the interaction between BeFx and D54 of NtrC requires a divalent cation. […]
# [7] = biological target: T3, NtrC^WT; assay: Formation of open complexes, single-cycle transcription assay; format: biochemical; details: ≦100 μM BeFx vs 10 mM carbamoyl phosphate
# Experimental: Formation of open complexes was assessed in a single-cycle transcription assay on a supercoiled plasmid template pJES534 (1 nM) (Porter et al. (1993) Genes Dev. 7, 2258-2273; Flashner et al. (1995) J. Mol. Biol. 249, 700-713). NtrC was incubated with 100 μM BeCl2 plus 10 mM NaF or 10 mM carbamoyl phosphate, respectively, at 37° C. for 10 min prior to initiation of the reaction with ATP.
# (§1) Transcriptional activation of NtrC was assessed as described in Flashner et al. (1995) J. Mol. Biol. 249, 700-713. DNA-binding of OmpR was assessed as described in Huang and Igo (1996) J. Mol. Biol. 262, 615-628. DNA-binding of NarL was assessed as described in Li et al. (1994) J. Mol. Biol. 241, 150-165 and Darwin et al. (1997) Mol. Microbiol 25, 583-595.
# [8] = system: ompF promoter-regulatory region; assay: DNase I footprinting of OmpR binding; set-up: species or system E. coli; details: compared with P-OmpR (EnvZ or acetyl phosphate); NaF 10 mM, BeCl2 100 μM
# Experimental: Binding of BeFx.OmpR to the ompF promoter-regulatory region was assessed by DNase I footprinting as described in Huang and Igo (1996) J. Mol. Biol. 262, 615-628 and was compared to that of P-OmpR. The concentrations of OmpR were: 6.4 μM (lanes 1, 6, 11 and 16); 1.6 μM (lanes 2, 7, 12 and 17); 0.4 μM (lanes 3, 8, 13 and 18); 0.1 μM (lanes, 4, 9, 14 and 19); and 0 μM (lanes 5, 10, 15 and 20). For samples in lanes 6-10, OmpR was phosphorylated by MBP-EnvZ (0.3 μM) as described (Huang and Igo (1996) J. Mol. Biol. 262, 615-628). For samples in lanes 11-20, NaF (10 mM) was present and for those in lanes 16-20, BeCl2 (100 μM) was also present. Non-specific DNA-binding observed in the presence of BeCl2 and NaF in lanes 16 and 17 was not observed when OmpR was phosphorylated by EnvZ (lanes 6 and 7) unless much higher concentrations of OmpR were used (see FIG. 4).
# as §1
# [9] = biological target: FliM peptide (residues 1-16); assay: FliM peptide binding of CheY (tryptophan fluorescence quenching); set-up: species or system E. coli; details: CheY 10 μM; ± 2 mM BeCl2, 20 mM NaF, 20 mM MgCl2; read-out: Dissociation constant for binding to the FliM peptide
# Experimental: FliM peptide binding of CheY was assessed as described in McEvoy et al. (1999) J. Mol. Biol. 289, 1423-1433. Fluorescence intensity of CheY (10 μM) at 340 nm was measured as a function of added FliM peptide in the absence or presence of 2 mM BeCl2, 20 mM NaF and 20 mM MgCl2.
# There is no direct in vitro assay for the activity of P-CheY in reversing the direction of flagellar rotation. […] The strength of this binding, which was assessed by quenching of the intrinsic tryptophan fluorescence of CheY, was recently reported to be phosphorylation-dependent (McEvoy et al. (1999) J. Mol. Biol. 289, 1423-1433). […] By this criterion, BeFx.CheY is as active as P-CheY. Like BeFx.CheY, a phosphonate derivative of CheY^D57C appears to be a biochemical analogue of P-CheY, but it is difficult to prepare (Halkides et al. (1998) Biochemistry 37, 13674-13680). Such analogues are extremely useful because the acyl phosphate linkage of P-CheY is exceptionally labile (half life of seconds) (Parkinson and Kofoid (1992) Annu. Rev. Genet. 26, 71-112; Stock et al. (1995) in Two-component signal transduction, eds. Hoch and Silhavy (ASM, Washington, D.C.), pp. 25-51).
molecule,measurement,setting,value
BeFx.NarL: beryllofluoride complex of E. coli response regulator NarL,Activity relative to P-NarL,"[1]; 200 μM BeCl2, 10 mM NaF and 5 mM MgCl2",less active
same,Binding to the control region for the fdnG operon,"[1]; compared with P-NarL, data not shown",bound similarly
[Be+2].[Cl-].[Cl-] [BeCl2],Effect of single component on PSP activity,[2],Neither alone had such a profound effect
same,"Effect of single component on ATPase activity of NtrC^D86N,S160F",[3],inhibited
same,BeCl2 concentration at which inhibition of ATPase activity occurred,[4]; 5 mM NaF,≥ 200 µM
same,BeCl2 concentration at which ATPase activity was detected (lowest tested),"[4]; 5 mM NaF, NtrC^WT 0.4 μM dimer",5 µM
same,BeCl2 concentration giving highest ATPase activity,"[4]; 5 mM NaF, NtrC^WT 0.4 μM dimer",100 µM
beryllofluoride [BeFx],Stimulation of ATPase activity of D54A / D54N NtrC,[5],failure of BeFx to stimulate
same,Inhibition of PSP activity at different temperatures,"[2]; 70° C. or room temperature, data not shown",similarly inhibited
same,Inhibition of hydrolytic activity of PSP,[2],significantly inhibited
same,"Stimulation of the ATPase activity of unphosphorylated NtrC^D86N,S160F",[3],substantially stimulated
same,Stimulation of the ATPase activity of NtrC^WT,[4],as effective as carbamoyl phosphate
same,Phosphorylation-dependent Fe-mediated cleavage,[6],yields an otherwise phosphorylation-dependent cleavage
same,Activation of transcription by σ54-holoenzyme (open complexes),[7],at least as great as that of the phosphorylated protein
ADP.BeFx,"Inhibition of the ATPase activity of NtrC^D86N,S160F",[3]; ADP complexes of phosphate analogs,neither ADP.BeFx nor ADP.AlFx nor ADP.VO4^3− appeared to inhibit
"[O]=[V]([O-])([O-])[O-] [VO4^3−, orthovanadate]",Inhibition of hydrolytic activity of PSP,[2],observed to inhibit PSP activity
same,Stimulation of the ATPase activity of NtrC^WT,[4],neither AlFx nor VO4^3− could substitute
aluminofluoride [AlFx],Inhibition of hydrolytic activity of PSP,[2],can substitute for BeF3^− to inhibit PSP activity
same,"Stimulation of the ATPase activity of unphosphorylated NtrC^D86N,S160F",[3],but not Alfx
same,Stimulation of the ATPase activity of NtrC^WT,[4],neither AlFx nor VO4^3− could substitute
[F-].[Na+] [NaF],Effect of single component on PSP activity,[2],Neither alone had such a profound effect
same,"Effect of single component on ATPase activity of NtrC^D86N,S160F",[3],inhibited
same,NaF concentration at which inhibition of ATPase activity occurred,[4]; 50 μM BeCl2,≥ 50 mM
same,NaF concentration below which no ATPase activity was observed,[4]; 50 μM BeCl2,1 mM
B1,Binding to regulatory region upstream of the ompF promoter,[8],better than P-OmpR
B2,Kd,[9],26 µM
B3,Kd,[9],500 µM

# Source: patent publication US6495356B1, “Beryllofluoride analogues of acyl phosphate polypeptides” (priority 1999, dated 2002)
